Source: US20180161276A1, “TEMPERATURE-RESPONSIVE COMPOSITION, METHOD FOR FABRICATING, AND USE THEREOF” (NATIONAL TSING HUA UNIVERSITY, priority 2016, published 2018)

Target: hemoglobin (Hb) (Homo sapiens, UniProt P68871+P69905)
Experiment: Anti-degradation ability of produced nitric oxide in the presence of hemoglobin
Format: physicochemical
Conditions: in the presence of hemoglobin compared to absence of hemoglobin
Excerpt: As mentioned above, the half-life of nitric oxide is quite short due to the reaction between nitric oxide and erythrocyte in plasma or ceruloplasmin. Please refer to FIG. 6A and FIG. 6B.
However, the half-life of nitric oxide, which is produced by using the temperature-responsive composition of the 1st embodiment in the present disclosure in the presence of hemoglobin, only has a degradation of 40% as shown in FIG. 6B. That is, it proves that applying the temperature-responsive composition of the present disclosure can extend the half-life of the produced nitric oxide.

Chain of hemoglobin (Hb) (P69905 2-142 limits assumed): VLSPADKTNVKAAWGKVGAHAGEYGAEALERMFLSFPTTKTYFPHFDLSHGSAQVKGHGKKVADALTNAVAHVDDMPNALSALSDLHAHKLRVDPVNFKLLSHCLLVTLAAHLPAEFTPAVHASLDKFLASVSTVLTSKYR
Chain of hemoglobin (Hb) (P68871 2-147 limits assumed): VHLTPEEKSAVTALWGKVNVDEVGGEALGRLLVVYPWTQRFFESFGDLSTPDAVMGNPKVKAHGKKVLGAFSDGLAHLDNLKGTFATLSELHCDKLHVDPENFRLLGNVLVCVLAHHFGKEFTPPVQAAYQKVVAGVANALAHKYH

For `NCCN(CCN)/[N+]([O-])=N/O` [diethylenetriaine-NONOate], which “degradation of the half-life of the produced nitric oxide” value is on record?
The value was 85%.
